Results taken from the supplement of paper PMC10733146.

Key:
Test in all cases: viability relative to DMSO control (fraction); higher = less drug effect (more viable cells)
Details in all cases: 48 h
[1] = test system: primary DLBCL patient cells (S082)
Procedure, shortened: (§1)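 Primary mononuclear tumour cells (Ficoll-isolated from blood or bone marrow, or processed lymph node; fresh or cryopreserved) were plated at 4 × 10^4 cells per well in 384-well plates with pre-plated compounds at five concentrations, one well each. Medium was RPMI-1640 with penicillin/streptomycin, L-glutamine and human serum, at 37 °C and 5% CO2 for 48 h. Viability was read as CellTiter-Glo luminescence relative to the median of 16 inner DMSO wells.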

[2] = test system: primary B-PLL patient cells (S016)
Procedure, shortened: as §1

[3] = test system: primary AML patient cells (S011)
Procedure, shortened: as §1

[4] = test system: primary FL patient cells (S087)
Procedure, shortened: as §1

[5] = test system: primary MCL patient cells (S041)
Procedure, shortened: as §1

[6] = test system: primary DLBCL patient cells (S076)
Procedure, shortened: as §1

[7] = test system: primary T-NHL patient cells (S058)
Procedure, shortened: as §1

[8] = test system: primary T-PLL patient cells (S008)
Procedure, shortened: as §1

[9] = test system: primary AML patient cells (S007)
Procedure, shortened: as §1

[10] = test system: primary AML patient cells (S006)
Procedure, shortened: as §1

[11] = test system: primary AML patient cells (S081)
Procedure, shortened: as §1

[12] = test system: primary ALL patient cells (S088)
Procedure, shortened: as §1

[13] = test system: primary AML patient cells (S009)
Procedure, shortened: as §1

[14] = test system: primary DLBCL patient cells (S049)
Procedure, shortened: as §1

[15] = test system: primary MCL patient cells (S063)
Procedure, shortened: as §1

[16] = test system: primary AML patient cells (S021)
Procedure, shortened: as §1

[17] = test system: primary AML patient cells (S060)
Procedure, shortened: as §1

[18] = test system: primary AML patient cells (S055)
Procedure, shortened: as §1

For `CC#CC(=O)N1CCC[C@H]1c1nc(-c2ccc(C(=O)Nc3ccccn3)cc2)c2c(N)nccn12` [Acalabrutinib (ACP-196)], the viability ([1]; 0.008 µM) was 0.804, the viability ([1]; 0.04 µM) was 0.675 and the viability ([1]; 0.2 µM) was 0.559. For the same compound, the viability ([1]; 1 µM) was 0.462, the viability ([1]; 5 µM) was 0.447 and the viability ([2]; 0.008 µM) was 0.748. It also gave a viability ([2]; 0.04 µM) of 0.627, a viability ([2]; 0.2 µM) of 0.601 and a viability ([2]; 1 µM) of 0.549. For the same compound, the viability ([2]; 5 µM) was 0.6, the viability ([3]; 0.008 µM) was 1.03 and the viability ([3]; 0.04 µM) was 1.02. The viability ([3]; 0.2 µM) was 1.01, the viability ([3]; 1 µM) was 0.864 and the viability ([3]; 5 µM) was 1.01. It also gave a viability ([4]; 0.008 µM) of 1.08, a viability ([4]; 0.04 µM) of 1.03 and a viability ([4]; 0.2 µM) of 1.07. For the same compound, the viability ([4]; 1 µM) was 0.994, the viability ([4]; 5 µM) was 1.04 and the viability ([5]; 0.008 µM) was 1. It also gave a viability ([5]; 0.04 µM) of 1, a viability ([5]; 0.2 µM) of 0.859 and a viability ([5]; 1 µM) of 0.899. It also gave a viability ([5]; 5 µM) of 0.855, a viability ([6]; 0.008 µM) of 1.08 and a viability ([6]; 0.04 µM) of 1.14. It also gave a viability ([6]; 0.2 µM) of 1.11, a viability ([6]; 1 µM) of 1.12 and a viability ([6]; 5 µM) of 1.06. It also gave a viability ([7]; 0.008 µM) of 1.16, a viability ([7]; 0.04 µM) of 1.21 and a viability ([7]; 0.2 µM) of 1.14. For the same compound, the viability ([7]; 1 µM) was 1.25, the viability ([7]; 5 µM) was 1.06 and the viability ([8]; 0.008 µM) was 1.11. It also gave a viability ([8]; 0.04 µM) of 1.01, a viability ([8]; 0.2 µM) of 1.08 and a viability ([8]; 1 µM) of 0.989. The viability ([8]; 5 µM) was 1.13, the viability ([9]; 0.008 µM) was 0.895 and the viability ([9]; 0.04 µM) was 0.945. For the same compound, the viability ([9]; 0.2 µM) was 0.911, the viability ([9]; 1 µM) was 1.07 and the viability ([9]; 5 µM) was 1.04. For the same compound, the viability ([10]; 0.008 µM) was 1.08, the viability ([10]; 0.04 µM) was 1.1 and the viability ([10]; 0.2 µM) was 1.09. The viability ([10]; 1 µM) was 1.08, the viability ([10]; 5 µM) was 1.04 and the viability ([11]; 0.008 µM) was 1.01. The viability ([11]; 0.04 µM) was 1.05, the viability ([11]; 0.2 µM) was 0.985 and the viability ([11]; 1 µM) was 1.02. For the same compound, the viability ([11]; 5 µM) was 1.02, the viability ([12]; 0.008 µM) was 1.04 and the viability ([12]; 0.04 µM) was 1.04. For the same compound, the viability ([12]; 0.2 µM) was 1.04, the viability ([12]; 1 µM) was 1.02 and the viability ([12]; 5 µM) was 1.16. For the same compound, the viability ([13]; 0.008 µM) was 1.19, the viability ([13]; 0.04 µM) was 1.11 and the viability ([13]; 0.2 µM) was 1.16. The viability ([13]; 1 µM) was 1.09, the viability ([13]; 5 µM) was 1.12 and the viability ([14]; 0.008 µM) was 0.892. It also gave a viability ([14]; 0.04 µM) of 0.758, a viability ([14]; 0.2 µM) of 0.693 and a viability ([14]; 1 µM) of 0.74. It also gave a viability ([14]; 5 µM) of 0.704, a viability ([15]; 0.008 µM) of 0.697 and a viability ([15]; 0.04 µM) of 0.328. For the same compound, the viability ([15]; 0.2 µM) was 0.276, the viability ([15]; 1 µM) was 0.246 and the viability ([15]; 5 µM) was 0.262. The viability ([16]; 0.008 µM) was 1.13, the viability ([16]; 0.04 µM) was 1.05 and the viability ([16]; 0.2 µM) was 1.13. The viability ([16]; 1 µM) was 1.1, the viability ([16]; 5 µM) was 1.03 and the viability ([17]; 0.008 µM) was 1.08. The viability ([17]; 0.04 µM) was 1.06, the viability ([17]; 0.2 µM) was 1.04 and the viability ([17]; 1 µM) was 1.05. The viability ([17]; 5 µM) was 1.05.
`CC(C)c1cc(C(=O)N2Cc3ccc(CN4CCN(C)CC4)cc3C2)c(O)cc1O` [Onalespib] showed a viability ([1]; 0.0032 µM) of 0.967, a viability ([1]; 0.016 µM) of 1.24 and a viability ([1]; 0.08 µM) of 1.03. For the same compound, the viability ([1]; 0.4 µM) was 1.22, the viability ([1]; 2 µM) was 0.961 and the viability ([2]; 0.0032 µM) was 0.875. For the same compound, the viability ([2]; 0.016 µM) was 1.35, the viability ([2]; 0.08 µM) was 0.668 and the viability ([2]; 0.4 µM) was 0.69. The viability ([2]; 2 µM) was 0.629, the viability ([3]; 0.0032 µM) was 0.712 and the viability ([3]; 0.016 µM) was 0.916. For the same compound, the viability ([3]; 0.08 µM) was 0.399, the viability ([3]; 0.4 µM) was 0.684 and the viability ([3]; 2 µM) was 0.66. It also gave a viability ([4]; 0.0032 µM) of 0.962, a viability ([4]; 0.016 µM) of 1.02 and a viability ([4]; 0.08 µM) of 0.853. The viability ([4]; 0.4 µM) was 0.84, the viability ([4]; 2 µM) was 0.871 and the viability ([5]; 0.0032 µM) was 0.95. It also gave a viability ([5]; 0.016 µM) of 1.05, a viability ([5]; 0.08 µM) of 0.724 and a viability ([5]; 0.4 µM) of 0.53. The viability ([5]; 2 µM) was 0.445, the viability ([8]; 0.0032 µM) was 1.1 and the viability ([8]; 0.016 µM) was 1.06. It also gave a viability ([8]; 0.08 µM) of 1.06, a viability ([8]; 0.4 µM) of 0.989 and a viability ([8]; 2 µM) of 0.993. It also gave a viability ([9]; 0.0032 µM) of 0.566, a viability ([9]; 0.016 µM) of 0.114 and a viability ([9]; 0.08 µM) of 0.0773. For the same compound, the viability ([9]; 0.4 µM) was 0.102, the viability ([9]; 2 µM) was 0.111 and the viability ([10]; 0.0032 µM) was 0.788. For the same compound, the viability ([10]; 0.016 µM) was 0.312, the viability ([10]; 0.08 µM) was 0.124 and the viability ([10]; 0.4 µM) was 0.213. The viability ([10]; 2 µM) was 0.239, the viability ([11]; 0.0032 µM) was 1.05 and the viability ([11]; 0.016 µM) was 1.08. It also gave a viability ([11]; 0.08 µM) of 0.311, a viability ([11]; 0.4 µM) of 0.0842 and a viability ([11]; 2 µM) of 0.0764. The viability ([12]; 0.0032 µM) was 0.659, the viability ([12]; 0.016 µM) was 0.582 and the viability ([12]; 0.08 µM) was 0.255. For the same compound, the viability ([12]; 0.4 µM) was 0.273, the viability ([12]; 2 µM) was 0.253 and the viability ([18]; 0.0032 µM) was 0.96. For the same compound, the viability ([18]; 0.016 µM) was 1.01, the viability ([18]; 0.08 µM) was 0.566 and the viability ([18]; 0.4 µM) was 0.434. The viability ([18]; 2 µM) was 0.389, the viability ([13]; 0.0032 µM) was 1.15 and the viability ([13]; 0.016 µM) was 0.852. It also gave a viability ([13]; 0.08 µM) of 0.686, a viability ([13]; 0.4 µM) of 0.568 and a viability ([13]; 2 µM) of 0.648. The viability ([15]; 0.0032 µM) was 0.9, the viability ([15]; 0.016 µM) was 1.27 and the viability ([15]; 0.08 µM) was 0.447. It also gave a viability ([15]; 0.4 µM) of 0.1, a viability ([15]; 2 µM) of 0.0867 and a viability ([16]; 0.0032 µM) of 0.874. For the same compound, the viability ([16]; 0.016 µM) was 0.716, the viability ([16]; 0.08 µM) was 0.466 and the viability ([16]; 0.4 µM) was 0.523. The viability ([16]; 2 µM) was 0.58, the viability ([17]; 0.0032 µM) was 0.967 and the viability ([17]; 0.016 µM) was 1.15. The viability ([17]; 0.08 µM) was 0.61, the viability ([17]; 0.4 µM) was 0.169 and the viability ([17]; 2 µM) was 0.109.
